Experimental data from PubChem BioAssay AID248 (DTP/NCI, 2004).
Values joined by “and” are separate entries in the source; they are usually repeats but may differ in a detail not shown here. Equal entries are not always repeated. Inconclusive results and toxic doses are left out. Cut-off read from the data, not from the text of the source: active = T/C of 150% or more; inactive = T/C below 125%.

Test system: L1210 leukemia ip in BDF1 mice, survival T/C
Assay: NCI In Vivo Anticancer Drug Screen. Data for tumor model L1210 Leukemia (intraperitoneal) in B6D2F1 (BDF1) mice
Conditions: endpoint: mean survival time, higher = longer survival
How it was run: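 Antitumor effect is assessed in tumor-bearing animals. Survival in the compound arm is compared with a vehicle-dosed control arm and expressed as their quotient.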

[1] = dose: 100.0 mg/kg/injection, schedule: Q01DX009 (ip), vehicle: Klucel (hydroxypropylcellulose) (HPC)
[2] = dose: 200.0 mg/kg/injection, schedule: Q01DX009 (ip), vehicle: Klucel (hydroxypropylcellulose) (HPC)
[3] = dose: 100.0 mg/kg/injection, schedule: Q04DX003 (ip), vehicle: saline
[4] = dose: 12.5 mg/kg/injection, schedule: Q04DX003 (ip), vehicle: Klucel (hydroxypropylcellulose) (HPC)
[5] = dose: 25.0 mg/kg/injection, schedule: Q01DX009 (ip), vehicle: saline
[6] = dose: 25.0 mg/kg/injection, schedule: Q04DX003 (ip), vehicle: Klucel (hydroxypropylcellulose) (HPC)

Measured: T/C

O=C(Nc1ccc(S(=O)(=O)Nc2ccc(N=Nc3ccccc3)cc2)cc1)C(SC1=NC=NC2=NC=NC21)SC1=NC=NC2=NC=NC21 (stereo not drawn)
inactive: dose: 75.0 mg/kg/injection, schedule: Q04DX003 (ip), vehicle: saline 104 % of control | dose: 150.0 mg/kg/injection, schedule: Q04DX003 (ip), vehicle: saline 96 % of control | dose: 300.0 mg/kg/injection, schedule: Q04DX003 (ip), vehicle: saline 109 % of control

Cc1ccc(S(=O)(=O)N2CCCC2CO)cc1 (stereo not drawn)
inactive: dose: 50.0 mg/kg/injection, schedule: Q01DX009 (ip), vehicle: Klucel (hydroxypropylcellulose) (HPC) 97 % of control | [1] 101 % of control | [2] 101 % of control

OC12C3CCCC1CCCC2CCC3 (stereo not drawn)
inactive: dose: 100.0 mg/kg/injection, schedule: Q01DX009 (ip), vehicle: other 101 % of control | dose: 100.0 mg/kg/injection, schedule: Q01DX009 (ip), vehicle: saline sonified 103 % of control | dose: 100.0 mg/kg/injection, schedule: Q01DX009 (ip), vehicle: saline with Tween-80 110 % of control and 90 % of control | dose: 100.0 mg/kg/injection, schedule: Q04DX003 (ip), vehicle: Klucel (hydroxypropylcellulose) (HPC) 95 % of control and 106 % of control and 96 % of control | [3] 102 % of control | dose: 200.0 mg/kg/injection, schedule: Q01DX009 (ip), vehicle: other 94 % of control | dose: 200.0 mg/kg/injection, schedule: Q01DX009 (ip), vehicle: saline sonified 103 % of control | dose: 200.0 mg/kg/injection, schedule: Q01DX009 (ip), vehicle: saline with Tween-80 106 % of control and 89 % of control | dose: 200.0 mg/kg/injection, schedule: Q04DX003 (ip), vehicle: Klucel (hydroxypropylcellulose) (HPC) 108 % of control and 100 % of control and 96 % of control | dose: 200.0 mg/kg/injection, schedule: Q04DX003 (ip), vehicle: saline 102 % of control | dose: 400.0 mg/kg/injection, schedule: Q01DX009 (ip), vehicle: other 92 % of control | dose: 400.0 mg/kg/injection, schedule: Q01DX009 (ip), vehicle: saline sonified 92 % of control | dose: 400.0 mg/kg/injection, schedule: Q01DX009 (ip), vehicle: saline with Tween-80 95 % of control and 92 % of control | dose: 400.0 mg/kg/injection, schedule: Q04DX003 (ip), vehicle: Klucel (hydroxypropylcellulose) (HPC) 95 % of control and 104 % of control and 114 % of control | dose: 400.0 mg/kg/injection, schedule: Q04DX003 (ip), vehicle: saline 104 % of control

COc1cc(/C=N\N=C(/C)c2ccc(C)cc2C)cc(OC)c1OC
inactive: dose: 100.0 mg/kg/injection, schedule: Q04DX002 (ip), vehicle: saline with Tween-80 88 % of control | dose: 200.0 mg/kg/injection, schedule: Q04DX002 (ip), vehicle: saline with Tween-80 92 % of control

CC1CC(=O)C=C(c2ccccc2)O1 (stereo not drawn)
inactive: dose: 75.0 mg/kg/injection, schedule: Q01DX009 (ip), vehicle: Klucel (hydroxypropylcellulose) (HPC) 101 % of control | dose: 150.0 mg/kg/injection, schedule: Q01DX009 (ip), vehicle: Klucel (hydroxypropylcellulose) (HPC) 101 % of control

Nc1cc(S(N)(=O)=O)ccc1N1CCCCC1
inactive: dose: 100.0 mg/kg/injection, schedule: Q04DX003 (ip), vehicle: saline with Tween-80 95 % of control | dose: 200.0 mg/kg/injection, schedule: Q04DX003 (ip), vehicle: saline with Tween-80 96 % of control | dose: 400.0 mg/kg/injection, schedule: Q04DX003 (ip), vehicle: saline with Tween-80 101 % of control

CCSCC(O)CCl (stereo not drawn)
inactive: dose: 37.5 mg/kg/injection, schedule: Q04DX002 (ip), vehicle: saline 103 % of control | dose: 37.5 mg/kg/injection, schedule: Q04DX003 (ip), vehicle: Klucel (hydroxypropylcellulose) (HPC) 115 % of control | dose: 75.0 mg/kg/injection, schedule: Q04DX002 (ip), vehicle: saline 107 % of control | dose: 75.0 mg/kg/injection, schedule: Q04DX003 (ip), vehicle: Klucel (hydroxypropylcellulose) (HPC) 105 % of control | dose: 150.0 mg/kg/injection, schedule: Q04DX002 (ip), vehicle: saline 100 % of control | dose: 150.0 mg/kg/injection, schedule: Q04DX003 (ip), vehicle: Klucel (hydroxypropylcellulose) (HPC) 98 % of control

c1ccc2c3csc4ccccc4c-3nc2c1
inactive: dose: 6.25 mg/kg/injection, schedule: Q01DX009 (ip), vehicle: saline 97 % of control | dose: 12.5 mg/kg/injection, schedule: Q01DX009 (ip), vehicle: saline 101 % of control | [4] 94 % of control | [5] 103 % of control | [6] 94 % of control | dose: 35.0 mg/kg/injection, schedule: Q01DX009 (ip), vehicle: Klucel (hydroxypropylcellulose) (HPC) 91 % of control

O=C1c2ccccc2C(=O)N1Cc1cccc(CBr)c1
inactive: dose: 50.0 mg/kg/injection, schedule: Q01DX001 (ip), vehicle: Klucel (hydroxypropylcellulose) (HPC) 105 % of control | dose: 100.0 mg/kg/injection, schedule: Q01DX001 (ip), vehicle: Klucel (hydroxypropylcellulose) (HPC) 92 % of control | dose: 200.0 mg/kg/injection, schedule: Q01DX001 (ip), vehicle: Klucel (hydroxypropylcellulose) (HPC) 91 % of control

CCOc1ccc(/C=N/NC(=O)CCCCCCCCC(=O)N/N=C/c2ccc(OCC)c(OC)c2)cc1OC
inactive: [1] 95 % of control | [2] 88 % of control | dose: 400.0 mg/kg/injection, schedule: Q01DX009 (ip), vehicle: Klucel (hydroxypropylcellulose) (HPC) 97 % of control

N=C(N=Nc1c(O)[nH]c2ccccc12)N[N+](=O)[O-]
inactive: dose: 6.25 mg/kg/injection, schedule: Q01DX009 (ip), vehicle: Klucel (hydroxypropylcellulose) (HPC) 95 % of control | dose: 12.5 mg/kg/injection, schedule: Q01DX009 (ip), vehicle: Klucel (hydroxypropylcellulose) (HPC) 101 % of control | [4] 100 % of control | dose: 25.0 mg/kg/injection, schedule: Q01DX009 (ip), vehicle: Klucel (hydroxypropylcellulose) (HPC) 91 % of control | [6] 102 % of control

N#CC(O)c1ccccc1 (stereo not drawn)
inactive: dose: 2.5 mg/kg/injection, schedule: Q01DX009 (ip), vehicle: acetone 101 % of control | dose: 5.0 mg/kg/injection, schedule: Q01DX001 (ip), vehicle: carboxymethylcellulose (CMC) 95 % of control | dose: 5.0 mg/kg/injection, schedule: Q01DX009 (ip), vehicle: acetone 102 % of control | dose: 10.0 mg/kg/injection, schedule: Q01DX001 (ip), vehicle: carboxymethylcellulose (CMC) 91 % of control | dose: 10.0 mg/kg/injection, schedule: Q01DX009 (ip), vehicle: acetone 104 % of control

CC(NC(=O)OCc1ccccc1)C(=O)NC(CC(=O)O)C(=O)O (stereo not drawn)
inactive: [5] 96 % of control | dose: 25.0 mg/kg/injection, schedule: Q04DX003 (ip), vehicle: saline 93 % of control | dose: 50.0 mg/kg/injection, schedule: Q01DX009 (ip), vehicle: saline 98 % of control | dose: 50.0 mg/kg/injection, schedule: Q04DX003 (ip), vehicle: saline 98 % of control | dose: 100.0 mg/kg/injection, schedule: Q01DX009 (ip), vehicle: saline 93 % of control | [3] 97 % of control

O=c1[nH]nnc2c1cnn2C1OC(CO)C(O)C1O (stereo not drawn)
inactive: dose: 100.0 mg/kg/injection, schedule: Q01DX001 (ip), vehicle: saline 100 % of control | dose: 200.0 mg/kg/injection, schedule: Q01DX001 (ip), vehicle: saline 106 % of control | dose: 400.0 mg/kg/injection, schedule: Q01DX001 (ip), vehicle: saline 97 % of control

Cc1cccc(OCC(O)CN(Cc2ccsc2)c2ccccn2)c1 (stereo not drawn)
inactive: dose: 100.0 mg/kg/injection, schedule: Q04DX002 (ip), vehicle: Klucel (hydroxypropylcellulose) (HPC) 94 % of control | dose: 200.0 mg/kg/injection, schedule: Q04DX002 (ip), vehicle: Klucel (hydroxypropylcellulose) (HPC) 106 % of control

Cc1cc(NCCN(C(C)C)C(C)C)nc(/N=C(\N)Nc2ccc(Cl)c(Cl)c2)n1
inactive: dose: 4.69 mg/kg/injection, schedule: Q01DX009 (ip), vehicle: Klucel (hydroxypropylcellulose) (HPC) 95 % of control | dose: 9.38 mg/kg/injection, schedule: Q01DX009 (ip), vehicle: Klucel (hydroxypropylcellulose) (HPC) 93 % of control | dose: 18.75 mg/kg/injection, schedule: Q01DX009 (ip), vehicle: Klucel (hydroxypropylcellulose) (HPC) 87 % of control | dose: 75.0 mg/kg/injection, schedule: Q01DX001 (ip), vehicle: other 94 % of control | dose: 150.0 mg/kg/injection, schedule: Q01DX001 (ip), vehicle: other 105 % of control

O=C1c2ccccc2C(=O)N1c1cc(O)cc(O)c1
inactive: dose: 100.0 mg/kg/injection, schedule: Q01DX009 (ip), vehicle: water 95 % of control | dose: 100.0 mg/kg/injection, schedule: Q04DX003 (ip), vehicle: water 96 % of control | dose: 200.0 mg/kg/injection, schedule: Q01DX009 (ip), vehicle: water 95 % of control | dose: 200.0 mg/kg/injection, schedule: Q04DX003 (ip), vehicle: water 94 % of control | dose: 400.0 mg/kg/injection, schedule: Q01DX009 (ip), vehicle: water 101 % of control | dose: 400.0 mg/kg/injection, schedule: Q04DX003 (ip), vehicle: water 96 % of control
